Each structure is given as a SMILES string.

This test has as its target vanilloid receptor 1 (VR1/TRPV1 receptor) (Homo sapiens, UniProt Q8NER1). In words: Functional FLIPR Ca2+ influx assay on vanilloid receptor 1, capsaicin (Cap) stimulus. In kind it is cell-based. The settings on record: Ki from IC50 by Cheng-Prusoff, read-out: (f) Ki (human being) [nM], Cap. The method in brief:
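Antagonism of Ca2+ influx stimulated by capsaicin (100 nM) in CHO K1 cells transfected with human VR1, read with Fluo-4 dye in a FLIPR; value is concentration giving 50% displacement of capsaicin. Rat VR1 variant uses cultured rat dorsal root ganglion neurons in NGF-containing medium.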

Take `Cc1cccc(-c2nc(C(F)(F)F)ccc2CNC(=O)C(C)c2ccc(CNS(C)(=O)=O)cc2)c1` (stereo not shown) [Example 4, 2-(4-(methylsulfonamidomethyl)phenyl)-N-((2-m-tolyl-6-(trifluoromethyl)pyridin-3-yl)methyl)propanamide]: the inhibition constant Ki (in general, the dissociation constant of the complex between target and ligand, obtained from inhibition or displacement) came to 66 nM.

Source of the values: patent publication US8937092B2, “Aryl or N-heteroaryl substituted methanesulfonamide derivatives as vanilloid receptor ligands” (Gruenenthal GmbH, priority 2011, dated 2015).
